From patent publication US12098139B2, “Chemokine receptor modulators and uses thereof” (RAPT Therapeutics, Inc., priority 2018, dated 2024)

target: T1, hCCR4 (Chem5-hCCR4 cells) (Homo sapiens, UniProt P51679); assay: Calcium flux assay (CCL22-stimulated, FLIPR Calcium 6 dye); format: cell-based; conditions: Table 3, CCL22 1.5 nM, read-out: Potency (IC50)
T1 sequence (P51679 1-360): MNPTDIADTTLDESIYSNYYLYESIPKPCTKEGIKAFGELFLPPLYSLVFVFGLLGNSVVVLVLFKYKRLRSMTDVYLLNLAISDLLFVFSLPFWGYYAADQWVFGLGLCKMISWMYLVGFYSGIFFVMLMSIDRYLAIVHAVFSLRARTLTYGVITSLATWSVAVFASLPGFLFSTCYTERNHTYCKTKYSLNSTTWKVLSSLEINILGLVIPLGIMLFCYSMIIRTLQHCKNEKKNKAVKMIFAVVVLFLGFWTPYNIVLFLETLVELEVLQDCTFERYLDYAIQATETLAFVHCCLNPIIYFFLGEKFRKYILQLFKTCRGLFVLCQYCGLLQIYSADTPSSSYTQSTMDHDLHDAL
Procedure, shortened: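 Chem5-hCCR4 cells were serum-starved 2 h and loaded 2 h with Calcium 6 dye plus 2.5 mM probenecid. They were then preincubated 1 h at 37 °C with compound (0.5% DMSO). CCL22 was added from a 7.5 nM working solution (5× EC80), and ΔF/Fmin at 485/525 nm was fitted 4-parameter for IC50.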

Structure (SMILES) | IC50 [nM]
C[C@@H](Nc1nc(N2CC([C@H]3CCCN([C@H]4C[C@](C)(C(=O)O)C4)C3)C2)nc2c1CCC2)c1ccc(Cl)cc1Cl [Example 20, (1R,3r)-3-((R)-3-(1-(4-(((R)-1-(2,4-dichlorophenyl)ethyl)amino)-6,7-dihydro-5H-cyclopenta[d]pyrimidin-2-yl)azetidin-3-yl)piperidin-1-yl)-1-methylcyclobutane-1-carboxylic acid] | < 100
C[C@@H](Nc1nc(N2CC([C@H]3CCCN([C@H]4C[C@](C)(C(=O)O)C4)C3)C2)nc(C(F)(F)F)c1Cl)c1ccc(Cl)cc1Cl [Example 37, (1R,3r)-3-((R)-3-(1-(5-chloro-4-(((R)-1-(2,4-dichlorophenyl)ethyl)amino)-6-(trifluoromethyl)pyrimidin-2-yl)azetidin-3-yl)piperidin-1-yl)-1-methylcyclobutane-1-carboxylic acid] | < 100
Cc1ncc(N2CC([C@H]3CCCN(CCO)C3)C2)nc1N[C@H](C)c1ccc(Cl)cc1Cl [Example 3, 2-((R)-3-(1-(6-(((R)-1-(2,4-dichlorophenyl)ethyl)amino)-5-methylpyrazin-2-yl)azetidin-3-yl)piperidin-1-yl)ethan-1-ol] | > 500
C[C@@H](Nc1nc(N2CC([C@H]3CCCN([C@H]4C[C@](C)(C(=O)O)C4)C3)C2)ncc1C(C)(C)O)c1ccc(Cl)cc1Cl [Example 35, (1R,3r)-3-((R)-3-(1-(4-(((R)-1-(2,4-dichlorophenyl)ethyl)amino)-5-(2-hydroxypropan-2-yl)pyrimidin-2-yl)azetidin-3-yl)piperidin-1-yl)-1-methylcyclobutane-1-carboxylic acid] | < 100
C[C@@H](Nc1nc(N2CC(C3CCCN(CCN4CCCC4=O)C3C(=O)O)C2)ncc1Cl)c1ccc(Cl)cc1Cl (stereo partly drawn) [Example 34, 3-(1-(5-chloro-4-(((R)-1-(2,4-dichlorophenyl)ethyl)amino)pyrimidin-2-yl)azetidin-3-yl)-1-(2-(2-oxopyrrolidin-1-yl)ethyl)piperidine-2-carboxylic acid] | 100 to 500
C[C@@H](Nc1nc(N2CC([C@H]3CCCN(CCO)C3)C2)cnc1C#N)c1ccc(S(C)(=O)=O)cc1Cl [Example 7, 3-(((R)-1-(2-chloro-4-(methylsulfonyl)phenyl)ethyl)amino)-5-(3-((R)-1-(2-hydroxyethyl)piperidin-3-yl)azetidin-1-yl)pyrazine-2-carbonitrile] | > 500
C[C@@H](Nc1nc(N2CC([C@H]3CCCN([C@H]4C[C@](C)(C(=O)O)C4)C3)C2)ncc1C1CC1)c1ccc(Cl)cc1Cl [Example 41, (1R,3r)-3-((R)-3-(1-(5-cyclopropyl-4-(((R)-1-(2,4-dichlorophenyl)ethyl)amino)pyrimidin-2-yl)azetidin-3-yl)piperidin-1-yl)-1-methylcyclobutane-1-carboxylic acid] | < 100

Next, values leading:

IC50 [nM] | Structure (SMILES)
< 100 | C[C@@H](Nc1nc(N2CC([C@H]3CCCN([C@H]4C[C@@H](C(=O)O)C4)C3)C2)nc2ccsc12)c1ccc(Cl)cc1Cl [Example 31, (1S,3s)-3-((R)-3-(1-(4-(((R)-1-(2,4-dichlorophenyl)ethyl)amino)thieno[3,2-d]pyrimidin-2-yl)azetidin-3-yl)piperidin-1-yl)cyclobutane-1-carboxylic acid]
< 100 | C[C@@H](Nc1nc(N2CC([C@H]3CCCN([C@H]4C[C@@](C)(C(=O)O)C4)C3)C2)ncc1Cl)c1ccc(Cl)cc1Cl [Example 40, (1S,3s)-3-((R)-3-(1-(5-chloro-4-(((R)-1-(2,4-dichlorophenyl)ethyl)amino)pyrimidin-2-yl)azetidin-3-yl)piperidin-1-yl)-1-methylcyclobutane-1-carboxylic acid]
< 100 | C[C@@H](Nc1nc(N2CC([C@H]3CCCN(CCO)C3)C2)ncc1Br)c1ccc(Cl)cc1Cl [Example 11, 2-((R)-3-(1-(5-bromo-4-(((R)-1-(2,4-dichlorophenyl)ethyl)amino)pyrimidin-2-yl)azetidin-3-yl)piperidin-1-yl)ethan-1-ol]
< 100 | C[C@@H](Nc1nc(N2CC([C@H]3CCCN([C@H]4C[C@@H](C(=O)O)C4)C3)C2)ncc1Cl)c1ccc(Cl)cc1Cl [Example 8, (1S,3s)-3-((R)-3-(1-(5-chloro-4-(((R)-1-(2,4-dichlorophenyl)ethyl)amino)pyrimidin-2-yl)azetidin-3-yl)piperidin-1-yl)cyclobutane-1-carboxylic acid]
100 to 500 | C[C@@H](Nc1nc(N2CC([C@H]3CCCN([C@H]4C[C@@H](C(=O)O)C4)C3)C2)cnc1C#N)c1ccc(Cl)cc1Cl [Example 5, (1S,3s)-3-((R)-3-(1-(5-cyano-6-(((R)-1-(2,4-dichlorophenyl)ethyl)amino)pyrazin-2-yl)azetidin-3-yl)piperidin-1-yl)cyclobutane-1-carboxylic acid]
< 100 | C[C@@H](Nc1nc(N2CC([C@H]3CCCN([C@H]4C[C@@H](C(=O)O)C4)C3)C2)ncc1Br)c1ccc(Cl)cc1Cl [Example 9, (1S,3s)-3-((R)-3-(1-(5-bromo-4-(((R)-1-(2,4-dichlorophenyl)ethyl)amino)pyrimidin-2-yl)azetidin-3-yl)piperidin-1-yl)cyclobutane-1-carboxylic acid]

same assay, conditions: Table 4, CCL22 1.5 nM, read-out: Potency (IC50)

Structure (SMILES) | IC50 [nM]
C[C@@H](Nc1nc(N2CC([C@H]3CCCN(C4CC(C)(C(=O)O)C4)C3)C2)cnc1C#N)c1ccc(Cl)cc1Cl (stereo partly drawn) [Example 51, 3-[(1S,3R)-3-[1-[5-cyano-6-[[(1R)-1-(2,4-dichlorophenyl)ethyl]amino]pyrazin-2-yl]azetidin-3-yl]-1-piperidyl]-1-methyl-cyclobutanecarboxylic acid; 2,2,2-trifluoroacetic acid] | > 500
C[C@@H](Nc1cnc(C#N)c(N2CC([C@H]3CCCN(CCC(=O)O)C3)C2)n1)c1ccc(Cl)cc1Cl [Example 53, 3-(3-(1-(3-cyano-6-(((R)-1-(2,4-dichlorophenyl)ethyl)amino)pyrazin-2-yl)azetidin-3-yl)piperidin-1-yl)propanoic acid] | > 500

same assay, conditions: Table 5, CCL22 1.5 nM, read-out: Potency (IC50)

Structure (SMILES) | IC50 [nM]
Cc1cc2c(N[C@H](C)c3ccc(Cl)cc3Cl)nc(N3CC([C@H]4CCCN(C5CC(C)(C(=O)O)C5)C4)C3)nc2s1 (single isomer, unassigned) [Example 67, trifluoroacetic acid] | < 100
C[C@@H](Nc1nc(N2CC([C@H]3CCCN([C@H]4C[C@](C)(C(=O)O)C4)C3)C2)nc2ccc(F)cc12)c1ccc(Cl)cc1Cl [Example 65, 3-[(1R,3R)-3-[1-[4-[[(1R)-1-(2,4-dichlorophenyl)ethyl]amino]-6-fluoro-quinazolin-2-yl]azetidin-3-yl]-1-piperidyl]-1-methyl-cyclobutanecarboxylic acid; 2,2,2-trifluoroacetic acid] | < 100
C[C@@H](Nc1nc(N2CC([C@H]3CCCN(C4CC(C)(C(=O)O)C4)C3)C2)ncc1C1CC1)c1ccc(Cl)cc1Cl (single isomer, unassigned) [Example 54] | < 100
CC(Nc1nc(N2CC([C@H]3CCCN(CCO)C3)C2)ncc1Cl)c1ccc(Cl)cc1F (stereo partly drawn) [Example 63, 2-[(3R)-3-[1-[5-chloro-4-[1-(4-chloro-2-fluoro-phenyl)ethylamino]pyrimidin-2-yl]azetidin-3-yl]-1-piperidyl]ethanol; 2,2,2-trifluoroacetic acid] | < 100
C[C@@H](Nc1nc(N2CC([C@H]3CCCN(C4CC(C)(C(=O)O)C4)C3)C2)nc2[nH]ccc12)c1ccc(Cl)cc1Cl (single isomer, unassigned) [Example 75, trifluoroacetic acid] | < 100
COC(C)c1cnc(N2CC([C@H]3CCCN([C@H]4C[C@](C)(C(=O)O)C4)C3)C2)nc1N[C@H](C)c1ccc(Cl)cc1Cl (stereo partly drawn) [Example 79, 3-[(3R)-3-[1-[4-[[(1R)-1-(2,4-dichlorophenyl)ethyl]amino]-5-(1-methoxyethyl)pyrimidin-2-yl]azetidin-3-yl]-1-piperidyl]-1-methyl-cyclobutanecarboxylic acid; 2,2,2-trifluoroacetic acid] | < 100
C[C@@H](Nc1nc(N2CC([C@H]3CCCN([C@H]4C[C@](C)(C(=O)O)C4)C3)C2)nc2ccccc12)c1ccc(Cl)cc1Cl [Example 94, 3-[(1R,3R)-3-[1-[4-[[(1R)-1-(2,4-dichlorophenyl)ethyl]amino]quinazolin-2-yl]azetidin-3-yl]-1-piperidyl]-1-methyl-cyclobutanecarboxylic acid; 2,2,2-trifluoroacetic acid] | < 100
Cc1nc(N2CC([C@H]3CCCN(C4CC(C)(C(=O)O)C4)C3)C2)nc(N[C@H](C)c2ccc(Cl)cc2Cl)c1F (single isomer, unassigned) [Example 91, trifluoroacetic acid] | < 100

Second part, the compound after the results:

IC50 [nM] | Structure (SMILES)
< 100 | C[C@@H](Nc1nc(N2CC([C@H]3CCCN(C4CC(C)(C(=O)O)C4)C3)C2)ncc1CO)c1ccc(Cl)cc1Cl (single isomer, unassigned) [Example 68]
< 100 | C[C@@H](Nc1nc(N2CC([C@H]3CCCN([C@H]4C[C@@H](C(=O)O)C4)C3)C2)nc2ccc(F)cc12)c1ccc(Cl)cc1Cl [Example 66, 3-[(1S,3R)-3-[1-[4-[[(1R)-1-(2,4-dichlorophenyl)ethyl]amino]-6-fluoro-quinazolin-2-yl]azetidin-3-yl]-1-piperidyl]cyclobutanecarboxylic acid; 2,2,2-trifluoroacetic acid]
